Measured values: patent publication US8987284B2, “Phosphorus containing quinazoline compounds and methods of use” (Newgen Therapeutics, Inc., priority 2009, dated 2015)

Columns and labels:
[1] = target: T1, EGFR kinase (Homo sapiens, UniProt P00533); assay: Kinase assay for EGFR (TR-FRET LanthaScreen); assay type: biochemical; settings: % inhibition at 100 nM or IC50 (nM)
T1 construct: purchased Invitrogen PV3872
Procedure: The extent to which the compounds of the present invention modulate EGFR kinase activity can be determined using time-resolved Fret (TR-FRET) assay (LanthaScreen® kinase activity assay, from Invitrogen). The assay employs EGFR kinase (PV3872, Invitrogen), Tb-Py20 antibody (PV3552, Invitrogen) and fluorescein-poly GT (PV3610, In vitrogen)
The assay is performed in a Black 384-well plate (available from Corning). EGFR kinase (is diluted in TR-FRET Dilution Buffer (PV3189, InVitrogen) at concentration of 0.4 ug/ml as stock solution, and then 2-fold serial diluted. Addition of 1 mM ATP initiated the reaction, and the reaction is incubated for 1 h reaction at room temperature. 10 μL of the Tb-antibody (from Invitrogen)+EDTA (from Invitrogen) solution prepared was added to each well of the assay plate and mix briefly, and incubated for 30 min. The signal is monitored by using M5 microplate reader (Ex=332 nm, Em=488 nm and 518 nm). Each compound is tested in duplicate wells. EGFR without compound is used as control. Staurosporine (available from Sigma) is used as positive control compound. Inhibition was calculated as percentage of the EGFR activity (without compound)

[2] = test system: BT474 cells; assay: Cell proliferation inhibition assay for BT474 (CCK-8); assay type: cell-based; settings: Homo sapiens, BT-474; 72 h, 8 points
Procedure: Human breast cancer BT474 cells was cultured in low glucose DMEM (Life Technologies 12320-032) containing 10% fetal bovine serum (FBS) at 37° C. in a humidified 10% CO2, 90% air incubator. Cells were harvested using trypsin/EDTA, counted using a haemocytometer, and plated 10000 cell/well in a 96-well clear tissue culture plate. The cells were incubated for 24 h at 37° C. to allow adherence. A serials of concentrations of each compound (ranging from 30 uM to […], 5-fold dilution) in 96-well plate, and incubated for 72 h. Each concentration was tested in triplicate wells. During the cell proliferation assay, BT474 cells were cultured in low-glucose DMEM containing 5% FBS, 50 ug/ml gentamicin, and 0.3% v/v DMSO. The culture medium was removed via aspiration, and the cell viability was detected by using CCK-8 cell proliferation kit.

T1 sequence (P00533 25-1210): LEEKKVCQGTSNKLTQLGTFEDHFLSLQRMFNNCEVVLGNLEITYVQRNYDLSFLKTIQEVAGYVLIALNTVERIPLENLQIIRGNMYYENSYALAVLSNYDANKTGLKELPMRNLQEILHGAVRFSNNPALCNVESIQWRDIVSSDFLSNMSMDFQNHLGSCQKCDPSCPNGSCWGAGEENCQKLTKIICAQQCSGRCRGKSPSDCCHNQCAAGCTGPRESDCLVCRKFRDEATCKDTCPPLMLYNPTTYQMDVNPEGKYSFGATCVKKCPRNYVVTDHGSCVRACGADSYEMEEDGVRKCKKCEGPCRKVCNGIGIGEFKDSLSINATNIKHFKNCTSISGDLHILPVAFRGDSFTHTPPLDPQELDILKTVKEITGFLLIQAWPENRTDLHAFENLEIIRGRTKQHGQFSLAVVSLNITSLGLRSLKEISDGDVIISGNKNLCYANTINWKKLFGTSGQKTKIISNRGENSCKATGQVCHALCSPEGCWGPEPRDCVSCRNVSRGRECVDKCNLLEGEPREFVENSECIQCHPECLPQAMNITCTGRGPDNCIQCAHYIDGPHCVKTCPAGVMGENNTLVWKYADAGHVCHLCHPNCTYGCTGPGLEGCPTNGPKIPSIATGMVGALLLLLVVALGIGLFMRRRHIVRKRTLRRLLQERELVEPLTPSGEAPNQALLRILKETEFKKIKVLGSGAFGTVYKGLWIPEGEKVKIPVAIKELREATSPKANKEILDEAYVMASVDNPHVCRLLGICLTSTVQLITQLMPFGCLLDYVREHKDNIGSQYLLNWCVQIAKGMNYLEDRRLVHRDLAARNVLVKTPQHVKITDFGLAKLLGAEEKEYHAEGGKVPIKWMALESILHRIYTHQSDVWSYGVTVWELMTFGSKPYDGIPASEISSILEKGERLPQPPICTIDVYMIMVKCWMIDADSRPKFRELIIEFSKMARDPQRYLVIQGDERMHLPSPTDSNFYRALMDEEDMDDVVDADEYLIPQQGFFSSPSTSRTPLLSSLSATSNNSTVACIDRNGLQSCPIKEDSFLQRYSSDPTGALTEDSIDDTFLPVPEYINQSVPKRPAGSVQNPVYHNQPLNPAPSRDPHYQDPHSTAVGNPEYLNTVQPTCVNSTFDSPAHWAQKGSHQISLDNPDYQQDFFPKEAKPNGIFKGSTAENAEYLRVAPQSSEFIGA

| Structure (SMILES) | EGFR inhibition inhibit % at 100 nM or IC50 (nM) [1] | IC50 [2] |
| --- | --- | --- |
| CP1(=O)CCN(Cc2ccc(-c3ccc4ncnc(Nc5ccc(OCc6cccc(F)c6)c(Cl)c5)c4c3)o2)CC1 [Example 1, N-(3-chloro-4-(3-fluorobenzyloxy)phenyl)-6-(5-((4-methyl-1,4-azaphosphino-1-yl)methyl)furan-2-yl)quinazolin-4-amine] | ++ (>50% inhibition at 100 nM, or IC50 <100 nM for EGFR or ErbB2 kinases) | < 100 nM |
| CP(C)(=O)CCNCc1ccc(-c2ccc3ncnc(Nc4ccc(OCc5cccc(F)c5)c(Cl)c4)c3c2)o1 [Example 2, 6-(5-((2-(dimethylphosphino)ethylaminoyl)methyl)furan-2-yl)-N-(4-(3-fluorobenzyloxy)-3-chlorophenyl)quinazolin-4-amine] | ++ (>50% inhibition at 100 nM, or IC50 <100 nM for EGFR or ErbB2 kinases) | < 100 nM |
| CP(C)(=O)CNCc1ccc(-c2ccc3ncnc(Nc4ccc(OCc5cccc(F)c5)c(Cl)c4)c3c2)o1 [Example 3, 6-(5-(((dimethylphosphinoyl)methylamino)methyl)furan-2-yl)-N-(4-(3-fluorobenzyloxy)-3-chlorophenyl)quinazolin-4-amine] | ++ (>50% inhibition at 100 nM, or IC50 <100 nM for EGFR or ErbB2 kinases) | 100 to 1000 nM |
| CP1(=O)CCN(CCCc2ccc3ncnc(Nc4ccc(OCc5cccc(F)c5)c(Cl)c4)c3c2)CC1 [Example 5, N-(3-chloro-4-(3-fluorobenzyloxy)phenyl)-6-(3-(4-methyl-1,4-azaphosphino-1-yl)propyl)quinazolin-4-amine] | ++ (>50% inhibition at 100 nM, or IC50 <100 nM for EGFR or ErbB2 kinases) |  |
| COP(=O)(CCNCc1ccc(-c2ccc3ncnc(Nc4ccc(OCc5cccc(F)c5)c(Cl)c4)c3c2)o1)OC [Example 6, dimethyl 2-((5-(4-(3-chloro-4-(3-fluorobenzyloxy)phenylamino)quinazolin-6-yl)furan-2-yl)methylamino)ethylphosphonate] | ++ (>50% inhibition at 100 nM, or IC50 <100 nM for EGFR or ErbB2 kinases) |  |
| CC1(C)COP(=O)(CCNCc2ccc(-c3ccc4ncnc(Nc5ccc(OCc6cccc(F)c6)c(Cl)c5)c4c3)o2)OC1 [Example 7, N-(3-chloro-4-(3-fluorobenzyloxy)phenyl)-6-(5-((2-(5,5-dimethyl-1,3,2-dioxaphosphino-2-yl)ethylamino)methyl)furan-2-yl)quinazolin-4-amine] | ++ (>50% inhibition at 100 nM, or IC50 <100 nM for EGFR or ErbB2 kinases) |  |
| CP1(=O)CCN(Cc2ccc(-c3ccc4ncnc(Nc5ccc(OCc6ccccn6)c(Cl)c5)c4c3)o2)CC1 [Example 8, N-(3-chloro-4-(pyridin-2-ylmethoxy)phenyl)-6-(5-((4-methyl-1,4-azaphosphino-1-yl)methyl)furan-2-yl)quinazolin-4-amine] | ++ (>50% inhibition at 100 nM, or IC50 <100 nM for EGFR or ErbB2 kinases) | < 100 nM |
| Cc1cccc(COc2ccc(Nc3ncnc4ccc(-c5ccc(CN6CCP(C)(=O)CC6)o5)cc34)cc2Cl)n1 [Example 9, N-(3-chloro-4-((6-methylpyridin-2-yl)methoxy)phenyl)-6-(5-((4-methyl-1,4-azaphosphino-1-yl)methyl)furan-2-yl)quinazolin-4-amine] | + (between 20% to 50% inhibition at 100 nM, or IC50 between 100 and 1000 nM) | 100 to 1000 nM |
| CP(C)(=O)CCNCC#Cc1ccc2ncnc(Nc3ccc(OCc4cccc(F)c4)c(Cl)c3)c2c1 [Example 10, 6-(3-(2-(dimethylphosphinoyl)ethylamino)prop-1-ynyl)-N-(4-(3-fluorobenzyloxy)-3-chlorophenyl)quinazolin-4-amine] | ++ (>50% inhibition at 100 nM, or IC50 <100 nM for EGFR or ErbB2 kinases) |  |
| CP1(=O)CCN(C/C=C/c2ccc3ncnc(Nc4ccc(OCc5cccc(F)c5)c(Cl)c4)c3c2)CC1 [Example 11, N-(4-(3-fluorobenzyloxy)-3-chlorophenyl)-6-((E)-3-(4-methyl-1,4-azaphosphino-1-yl)prop-1-enyl)quinazolin-4-amine] | ++ (>50% inhibition at 100 nM, or IC50 <100 nM for EGFR or ErbB2 kinases) |  |
| Cc1ccc(Oc2ccc(Nc3ncnc4ccc(-c5ccc(CN6CCP(C)(=O)CC6)o5)cc34)cc2C)cn1 [Example 12] | ++ (>50% inhibition at 100 nM, or IC50 <100 nM for EGFR or ErbB2 kinases) |  |
| CP(C)(=O)CN1CCN(Cc2ccc(-c3ccc4ncnc(Nc5ccc(OCc6cccc(F)c6)c(Cl)c5)c4c3)o2)CC1 [Example 13, N-(4-(3-fluorobenzyloxy)-3-chlorophenyl)-6-(5-((4-((dimethylphosphinoyl)-methyl)piperazin-1-yl)methyl)furan-2-yl)quinazolin-4-amine] | ++ (>50% inhibition at 100 nM, or IC50 <100 nM for EGFR or ErbB2 kinases) | 100 to 1000 nM |
| CP1(=O)CCN(Cc2ccc(-c3ccc4ncnc(Nc5ccc(OCc6cccc(F)c6)c(Br)c5)c4c3)o2)CC1 [Example 14, N-(4-(3-fluorobenzyloxy)-3-bromophenyl)-6-(5-((4-methyl-1,4-azaphosphino-1-yl)methyl)furan-2-yl)quinazolin-4-amine] | ++ (>50% inhibition at 100 nM, or IC50 <100 nM for EGFR or ErbB2 kinases) |  |
| CP1(=O)CCN(Cc2ccc(-c3ccc4ncnc(Nc5ccc(OCc6cccc[n+]6[O-])c(Cl)c5)c4c3)o2)CC1 [Example 15, 2-((2-chloro-4-(6-(5-((4-methyl-1,4-azaphosphino-1-yl)methyl)furan-2-yl)quinazolin-4-ylamino)phenoxy)methyl)pyridine 1-oxide] | ++ (>50% inhibition at 100 nM, or IC50 <100 nM for EGFR or ErbB2 kinases) | < 100 nM |
| CP1(=O)CCN(Cc2ccc(-c3ccc4ncnc(Nc5ccc6c(cnn6Cc6cccc(F)c6)c5)c4c3)o2)CC1 [Example 16, N-(1-(3-fluorobenzyl)-1H-indazol-5-yl)-6-(5-((4-methyl-1,4-azaphosphino-1-yl)methyl)furan-2-yl)quinazolin-4-amine] | ++ (>50% inhibition at 100 nM, or IC50 <100 nM for EGFR or ErbB2 kinases) |  |
| CCOP1(=O)CCN(Cc2ccc(-c3ccc4ncnc(Nc5ccc(OCc6cccc(F)c6)c(Cl)c5)c4c3)o2)CC1 [Example 17, N-(3-chloro-4-(3-fluorobenzyloxy)phenyl)-6-(5-((4-ethoxy-1,4-azaphosphino-1-yl)methyl)furan-2-yl)quinazolin-4-amine] | ++ (>50% inhibition at 100 nM, or IC50 <100 nM for EGFR or ErbB2 kinases) | < 100 nM |
| C[C@@H](Nc1ncnc2ccc(-c3ccc(CN4CCP(C)(=O)CC4)o3)cc12)c1ccccc1 [Example 18, (R)-6-(5-((4-methyl-1,4-azaphosphino-1-yl)methyl)furan-2-yl)-N-(1-phenylethyl)quinazolin-4-amine] | ++ (>50% inhibition at 100 nM, or IC50 <100 nM for EGFR or ErbB2 kinases) |  |
| CP1(=O)CCN(Cc2ccc(-c3ccc4ncnc(Nc5cccc(Cl)c5F)c4c3)o2)CC1 [Example 19, N-(3-chloro-2-fluorophenyl)-6-(5-((4-methyl-1,4-azaphosphino-1-yl)methyl)furan-2-yl)quinazolin-4-amine] | ++ (>50% inhibition at 100 nM, or IC50 <100 nM for EGFR or ErbB2 kinases) |  |
| CP1(=O)CCN(Cc2ccc(-c3ccc4ncnc(Nc5ccc(Br)cc5F)c4c3)o2)CC1 [Example 20, N-(4-Bromo-2-fluorophenyl)-6-(5-((4-methyl-1,4-azaphosphino-1-yl)methyl)furan-2-yl)quinazolin-4-amine] | + (between 20% to 50% inhibition at 100 nM, or IC50 between 100 and 1000 nM) |  |
| CP1(=O)CCN(Cc2ccc(-c3ccc4ncnc(Nc5ccc(Br)c(Cl)c5F)c4c3)o2)CC1 [Example 21, N-(4-Bromo-3-chloro-2-fluorophenyl)-6-(5-((4-methyl-1,4-azaphosphino-1-yl)methyl)furan-2-yl)quinazolin-4-amine] | ++ (>50% inhibition at 100 nM, or IC50 <100 nM for EGFR or ErbB2 kinases) |  |
| CP1(=O)CCN(Cc2ccc(-c3ccc4ncnc(Nc5ccc(OCc6cnccn6)c(Cl)c5)c4c3)o2)CC1 [Example 22, N-(3-chloro-4-(pyrazin-2-ylmethoxy)phenyl)-6-(5-((4-methyl-1,4-azaphosphino-1-yl)methyl)furan-2-yl)quinazolin-4-amine] | ++ (>50% inhibition at 100 nM, or IC50 <100 nM for EGFR or ErbB2 kinases) |  |
